target: Recombinant human CYP51A1 (lanosterol-14a-demethylase) (Homo sapiens (Human), UniProt Q16850); experiment: Inhibition of CYP51A1, fluorescent substrate BOMCC; assay type: biochemical; details: recombinant human CYP51A1 coexpressed with CYP reductase in bacterial membranes, 8-point concentration-response, read-out: CYP51 IC50
From the text: Method: Recombinant human CYP51A1 (lanosterol-14a-demethylase) enzyme was coexpressed with CYP reductase in bacterial membranes and the fluorescent substrate BOMCC (a nonnatural substrate that causes increases in fluorescence upon CYP51A1-dependent demethylation) was used to obtain 8-point dose concentration-response curves for each compound.

Recombinant human CYP51A1 (lanosterol-14a-demethylase), sequence (Q16850 whole entry): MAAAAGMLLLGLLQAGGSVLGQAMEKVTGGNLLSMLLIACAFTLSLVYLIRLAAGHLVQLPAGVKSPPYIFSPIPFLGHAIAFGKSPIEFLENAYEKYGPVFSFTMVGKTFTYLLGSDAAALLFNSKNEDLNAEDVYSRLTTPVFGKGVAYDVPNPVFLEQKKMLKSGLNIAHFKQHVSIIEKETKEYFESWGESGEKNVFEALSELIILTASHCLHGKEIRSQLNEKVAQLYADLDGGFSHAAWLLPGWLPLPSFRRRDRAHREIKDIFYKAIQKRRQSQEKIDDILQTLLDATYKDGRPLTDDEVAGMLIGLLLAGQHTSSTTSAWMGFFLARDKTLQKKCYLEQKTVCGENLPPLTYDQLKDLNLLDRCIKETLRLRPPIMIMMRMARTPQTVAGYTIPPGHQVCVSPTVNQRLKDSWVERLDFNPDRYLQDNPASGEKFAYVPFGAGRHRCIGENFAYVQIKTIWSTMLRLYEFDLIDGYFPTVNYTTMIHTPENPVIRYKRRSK

`CCCN(CC(O)c1cccnn1)C(=O)Cc1ccc(C(F)(F)F)nc1` (single isomer, unassigned) [compound 68, N-[2-hydroxy-2-pyridazin-3-yl-ethyl]-N-propyl-2-[6-(trifluoromethyl)-3-pyridyl]acetamide] and `CCCN(CC(O)c1cnccn1)C(=O)Cc1ccc(C(F)(F)F)nc1` (stereo not drawn) [compound 113] cannot be ordered by IC50: > 1000 nM for the first, > 1000 nM for the second.

`O=C(Cc1ccc(Cl)c(Cl)c1)N(C[C@@H](O)c1cccnc1)C1CCC1` [compound 71, N-cyclobutyl-2-(3,4-dichlorophenyl)-N-[(2S)-2-hydroxy-2-(3-pyridyl)ethyl]acetamide] and `O=C(Cc1ccc(Cl)c(Cl)c1)N(C[C@@H](O)c1cccnc1)C1CC1` [compound 86, N-cyclopropyl-2-(3,4-dichlorophenyl)-N-[(2S)-2-hydroxy-2-(3-pyridyl)ethyl]acetamide] cannot be ordered by IC50: ≤ 100 nM for the first, 100 to 1000 nM for the second.

`CCCN(CC(O)c1cnccn1)C(=O)C1Cc2cc(Cl)c(Cl)cc2C1` (single isomer, unassigned) [compound 42, 5,6-dichloro-N-(2-hydroxy-2-pyrazin-2-yl-ethyl)-N-propyl-indane-2-carboxamide] and `CCCN(C[C@@H](O)c1cccnc1)C(=O)C1CCc2cc(Cl)c(Cl)cc2C1` (stereo partly drawn) [compound 98, 6,7-dichloro-N-[(2S)-2-hydroxy-2-(3-pyridyl)ethyl]-N-propyl-tetralin-2-carboxamide] cannot be ordered by IC50: ≤ 100 nM for the first, ≤ 100 nM for the second.

`O=C(Cc1ccc(C(F)(F)F)nc1)N(C[C@@H](O)c1cccnc1)C1CCC1` [compound 74, N-cyclobutyl-N-[(2S)-2-hydroxy-2-(3-pyridyl)ethyl]-2-[6-(trifluoromethyl)-3-pyridyl]acetamide] and `O=C(Cc1ccc(C(F)(F)F)nc1)N(C[C@@H](O)c1cccnc1)C1COC1` [compound 78, N-[(2S)-2-hydroxy-2-(3-pyridyl)ethyl]-N-(oxetan-3-yl)-2-[6-(trifluoromethyl)-3-pyridyl]acetamide] cannot be ordered by IC50: ≤ 100 nM for the first, 100 to 1000 nM for the second.

`CCCN(CC(O)c1cnccc1OC)C(=O)Cc1ccc(Cl)c(Cl)c1` (stereo not drawn) [compound 109, 2-(3,4-dichlorophenyl)-N-[2-hydroxy-2-(4-methoxy-3-pyridyl)ethyl]-N-propyl-acetamide] and `CCCN(C[C@@H](O)c1cccnc1)C(=O)Cc1ccc(Cl)c(Cl)c1` [compound 8, 2-(3,4-dichlorophenyl)-N-[(2S)-2-hydroxy-2-(3-pyridyl)ethyl]-N-propyl-acetamide] cannot be ordered by IC50: ≤ 100 nM for the first, ≤ 100 nM for the second.

`CCCN(C[C@@H](O)c1cccnc1)C(=O)C1Cc2cc(C#N)c(C#N)cc2C1` [compound 133, 5,6-dicyano-N-[(2S)-2-hydroxy-2-(3-pyridyl)ethyl]-N-propyl-indane-2-carboxamide] and `CCCN(C[C@@H](O)c1cccnc1)C(=O)C1Cc2cnc(C(F)(F)F)cc2C1` (stereo partly drawn) [compound 128, N-[(2S)-2-hydroxy-2-(3-pyridyl)ethyl]-N-propyl-3-(trifluoromethyl)-6,7-dihydro-5H-cyclopenta[c]pyridine-6-carboxamide] cannot be ordered by IC50: 100 to 1000 nM for the first, ≤ 100 nM for the second.

`CCCN(C[C@@H](O)c1cccnc1)C(=O)Cc1ccc(C(F)F)c(F)c1` [compound 50, 2-[4-(difluoromethyl)-3-fluoro-phenyl]-N-[(2S)-2-hydroxy-2-(3-pyridyl)ethyl]-N-propyl-acetamide] and `CCCN(C[C@@H](O)c1cccnc1)C(=O)Cc1ccc(C#N)c(Cl)c1` [compound 100, 2-(3-chloro-4-cyano-phenyl)-N-[(2S)-2-hydroxy-2-(3-pyridyl)ethyl]-N-propyl-acetamide] cannot be ordered by IC50: ≤ 100 nM for the first, ≤ 100 nM for the second.

`CCCN(C[C@@H](O)c1cccnc1)C(=O)Cc1ccc(C(F)(F)F)cn1` [compound 106, N-[(2S)-2-hydroxy-2-(3-pyridyl)ethyl]-N-propyl-2-[5-(trifluoromethyl)-2-pyridyl]acetamide] and `CCCN(C[C@@H](O)c1cccnc1)C(=O)Cc1ccc(OC(F)(F)F)cn1` [compound 45, N-[(2S)-2-hydroxy-2-(3-pyridyl)ethyl]-N-propyl-2-[5-(trifluoromethoxy)-2-pyridyl]acetamide] cannot be ordered by IC50: 100 to 1000 nM for the first, ≤ 100 nM for the second.

First: CN1CCC(CN(C[C@@H](O)c2cccnc2)C(=O)Cc2ccc(C(F)(F)F)nc2)CC1 [compound 58, N-[(2S)-2-hydroxy-2-(3-pyridyl)ethyl]-N-[(1-methyl-4-piperidyl)methyl]-2-[6-(trifluoromethyl)-3-pyridyl]acetamide]
Second: CC(C)N(C[C@@H](O)c1cccnc1)C(=O)Cc1ccc(C(F)(F)F)nc1 [compound 72, (S)-N-(2-hydroxy-2-(pyridin-3-yl)ethyl)-N-isopropyl-2-(6-(trifluoromethyl)pyridin-3-yl)acetamide]
The IC50 of the first is higher: > 1000 nM for the first, 100 to 1000 nM for the second.

`CC(C)(C)OC(=O)N(CCc1ccc2ccccc2c1)CC(O)c1cccnc1` (stereo not drawn) [compound 137, Tert-butyl N-[2-hydroxy-2-(3-pyridyl)ethyl]-N-[2-(2-naphthyl)ethyl]carba mate] and `CCC(=O)N(CCc1ccc(Cl)c(Cl)c1)CC(O)c1cccnc1` (stereo not drawn) [compound 4] cannot be ordered by IC50: ≤ 100 nM for the first, 100 to 1000 nM for the second.

`CCCN(C[C@@H](O)c1cccnc1)C(=O)N1Cc2cc(Cl)c(Br)cc2C1` [compound 135, 5-bromo-6-chloro-N-[(2S)-2-hydroxy-2-(3-pyridyl)ethyl]-N-propyl-isoindoline-2-carboxamide] and `CCCN(C[C@@H](O)c1cccnc1)C(=O)N1Cc2cc(Cl)c(Cl)cc2C1` [compound 107, 5,6-dichloro-N-[(2S)-2-hydroxy-2-(3-pyridyl)ethyl]-N-propyl-isoindoline-2-carboxamide] cannot be ordered by IC50: ≤ 100 nM for the first, ≤ 100 nM for the second.

`CCCN(C[C@@H](O)c1cccnc1)C(=O)Cc1ccc(C)nc1` [compound 15, N-[(2S)-2-hydroxy-2-(3-pyridyl)ethyl]-2-(6-methyl-3-pyridyl)-N-propyl-acetamide] and `COC(=O)N(CCc1ccc(C(F)(F)F)nc1)C[C@@H](O)c1cccnc1` [compound 75, Methyl N-[(2S)-2-hydroxy-2-(3-pyridyl)ethyl]-N-[2-[6-(trifluoromethyl)-3-pyridyl]ethyl]carba mate] cannot be ordered by IC50: > 1000 nM for the first, > 1000 nM for the second.

`CCCN(CC(O)c1ccnnc1)C(=O)Cc1ccc(Cl)c(Cl)c1` (stereo not drawn) [compound 19] and `CCCN(CC(O)c1cncc(Cl)c1)C(=O)Cc1ccc(Cl)c(Cl)c1` (stereo not drawn) [compound 37, N-[2-(5-chloro-3-pyridyl)-2-hydroxy-ethyl]-2-(3,4-dichlorophenyl)-N-propyl-acetamide] cannot be ordered by IC50: > 1000 nM for the first, > 1000 nM for the second.

`CC(C)N(C[C@@H](O)c1cccnc1)C(=O)Cc1ccc(Cl)c(Cl)c1` [compound 18, 2-(3,4-dichlorophenyl) -N-[(2S)-2-hydroxy-2-(3-pyridyl)ethyl]-N-isopropyl-acetamide] and `O=C(Cc1ccc(Cl)c(Cl)c1)N(CC1COC1)C[C@@H](O)c1cccnc1` [compound 25, 2-(3,4-dichlorophenyl) -N-[(2S)-2-hydroxy-2-(3-pyridyl)ethyl]-N-(oxetan-3-ylmethyl)acetamide] cannot be ordered by IC50: ≤ 100 nM for the first, 100 to 1000 nM for the second.

`O=C(Cc1ccc(C(F)(F)F)nc1)N(Cc1ccccc1)C[C@@H](O)c1cccnc1` [compound 64, (S)-N-benzyl-N-(2-hydroxy-2-(pyridin-3-yl)ethyl)-2-(6-(trifluoromethyl)pyridin-3-yl)acetamide] and `O=C(Cc1ccc(OC(F)(F)F)cn1)N(CC1COC1)C[C@@H](O)c1cccnc1` [compound 66, N-[(2S)-2-hydroxy-2-(3-pyridyl)ethyl]-N-(oxetan-3-ylmethyl)-2-[5-(trifluoromethoxy)-2-pyridyl]acetamide] cannot be ordered by IC50: ≤ 100 nM for the first, 100 to 1000 nM for the second.

Source: patent US20230339890A1, “AMINO ALCOHOL COMPOUNDS AND USES THEREOF” (Kineta, Inc., priority 2020, published 2023)
